What was measured:
[1] = target: Mitogen-activated protein kinase 10 (Homo sapiens, UniProt P53779)
[2] = target: Casein kinase I isoform epsilon (Homo sapiens, UniProt P49674)
[3] = target: Serine/threonine-protein kinase Nek6 (Homo sapiens, UniProt Q9HC98)
[4] = target: Dual specificity protein kinase CLK2 (Homo sapiens, UniProt P49760)
Ephrin type-B receptor 1 = target: T1, Ephrin type-B receptor 1 (Homo sapiens, UniProt P54762)
T1 sequence (P54762 whole entry): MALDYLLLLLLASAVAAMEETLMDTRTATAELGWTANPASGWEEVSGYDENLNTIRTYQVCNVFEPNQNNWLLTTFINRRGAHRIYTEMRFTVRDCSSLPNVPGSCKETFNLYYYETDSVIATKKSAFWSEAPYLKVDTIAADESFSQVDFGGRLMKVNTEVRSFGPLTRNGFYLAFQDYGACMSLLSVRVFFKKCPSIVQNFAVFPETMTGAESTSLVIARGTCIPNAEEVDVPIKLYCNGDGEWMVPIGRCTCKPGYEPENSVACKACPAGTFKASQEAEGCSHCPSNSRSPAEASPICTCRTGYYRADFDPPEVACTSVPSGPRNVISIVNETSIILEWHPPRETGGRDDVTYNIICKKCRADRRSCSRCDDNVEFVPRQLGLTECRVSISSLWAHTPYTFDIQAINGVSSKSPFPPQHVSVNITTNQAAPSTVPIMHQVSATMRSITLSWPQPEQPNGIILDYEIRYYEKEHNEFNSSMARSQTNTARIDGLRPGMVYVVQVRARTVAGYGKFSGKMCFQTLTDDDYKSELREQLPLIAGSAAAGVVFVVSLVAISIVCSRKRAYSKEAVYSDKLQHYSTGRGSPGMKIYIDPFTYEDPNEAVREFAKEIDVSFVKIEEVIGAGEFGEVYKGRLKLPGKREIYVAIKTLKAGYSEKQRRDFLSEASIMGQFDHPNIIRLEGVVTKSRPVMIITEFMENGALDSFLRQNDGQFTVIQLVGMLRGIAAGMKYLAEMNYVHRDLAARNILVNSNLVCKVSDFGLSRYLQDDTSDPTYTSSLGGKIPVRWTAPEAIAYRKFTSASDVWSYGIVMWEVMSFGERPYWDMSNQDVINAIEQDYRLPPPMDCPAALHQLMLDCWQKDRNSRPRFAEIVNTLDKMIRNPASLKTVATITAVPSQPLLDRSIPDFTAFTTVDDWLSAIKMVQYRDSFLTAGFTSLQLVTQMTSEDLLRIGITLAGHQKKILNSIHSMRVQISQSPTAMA

[5] = target: Mitogen-activated protein kinase 14 (Homo sapiens, UniProt Q16539)
Mitogen-activated protein kinase 14, sequence (Q16539 whole entry): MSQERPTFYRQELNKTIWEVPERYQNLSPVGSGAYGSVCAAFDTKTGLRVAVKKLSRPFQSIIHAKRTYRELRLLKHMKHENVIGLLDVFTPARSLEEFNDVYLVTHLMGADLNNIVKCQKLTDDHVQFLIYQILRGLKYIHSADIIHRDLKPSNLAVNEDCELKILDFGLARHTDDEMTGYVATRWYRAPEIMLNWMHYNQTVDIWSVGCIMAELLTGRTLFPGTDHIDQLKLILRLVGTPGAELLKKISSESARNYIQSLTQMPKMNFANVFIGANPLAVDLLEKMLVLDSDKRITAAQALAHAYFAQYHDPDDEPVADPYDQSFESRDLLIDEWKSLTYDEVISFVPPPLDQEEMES

[6] = target: Mitogen-activated protein kinase 8 (Homo sapiens, UniProt P45983)
[7] = target: TRAF2 and NCK-interacting protein kinase (Homo sapiens, UniProt Q9UKE5)
Aurora kinase C = target: T2, Aurora kinase C (Homo sapiens, UniProt Q9UQB9)
T2 sequence (Q9UQB9 whole entry): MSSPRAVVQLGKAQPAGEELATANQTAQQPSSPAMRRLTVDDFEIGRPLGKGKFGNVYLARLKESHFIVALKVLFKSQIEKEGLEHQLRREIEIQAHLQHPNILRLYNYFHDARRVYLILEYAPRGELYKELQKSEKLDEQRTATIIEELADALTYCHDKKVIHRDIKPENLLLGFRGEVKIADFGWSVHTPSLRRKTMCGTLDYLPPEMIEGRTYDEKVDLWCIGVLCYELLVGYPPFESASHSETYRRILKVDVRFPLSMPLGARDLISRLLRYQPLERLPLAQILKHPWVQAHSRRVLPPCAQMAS

[8] = target: STE20-like serine/threonine-protein kinase (Homo sapiens, UniProt Q9H2G2)
STE20-like serine/threonine-protein kinase, sequence (Q9H2G2 whole entry): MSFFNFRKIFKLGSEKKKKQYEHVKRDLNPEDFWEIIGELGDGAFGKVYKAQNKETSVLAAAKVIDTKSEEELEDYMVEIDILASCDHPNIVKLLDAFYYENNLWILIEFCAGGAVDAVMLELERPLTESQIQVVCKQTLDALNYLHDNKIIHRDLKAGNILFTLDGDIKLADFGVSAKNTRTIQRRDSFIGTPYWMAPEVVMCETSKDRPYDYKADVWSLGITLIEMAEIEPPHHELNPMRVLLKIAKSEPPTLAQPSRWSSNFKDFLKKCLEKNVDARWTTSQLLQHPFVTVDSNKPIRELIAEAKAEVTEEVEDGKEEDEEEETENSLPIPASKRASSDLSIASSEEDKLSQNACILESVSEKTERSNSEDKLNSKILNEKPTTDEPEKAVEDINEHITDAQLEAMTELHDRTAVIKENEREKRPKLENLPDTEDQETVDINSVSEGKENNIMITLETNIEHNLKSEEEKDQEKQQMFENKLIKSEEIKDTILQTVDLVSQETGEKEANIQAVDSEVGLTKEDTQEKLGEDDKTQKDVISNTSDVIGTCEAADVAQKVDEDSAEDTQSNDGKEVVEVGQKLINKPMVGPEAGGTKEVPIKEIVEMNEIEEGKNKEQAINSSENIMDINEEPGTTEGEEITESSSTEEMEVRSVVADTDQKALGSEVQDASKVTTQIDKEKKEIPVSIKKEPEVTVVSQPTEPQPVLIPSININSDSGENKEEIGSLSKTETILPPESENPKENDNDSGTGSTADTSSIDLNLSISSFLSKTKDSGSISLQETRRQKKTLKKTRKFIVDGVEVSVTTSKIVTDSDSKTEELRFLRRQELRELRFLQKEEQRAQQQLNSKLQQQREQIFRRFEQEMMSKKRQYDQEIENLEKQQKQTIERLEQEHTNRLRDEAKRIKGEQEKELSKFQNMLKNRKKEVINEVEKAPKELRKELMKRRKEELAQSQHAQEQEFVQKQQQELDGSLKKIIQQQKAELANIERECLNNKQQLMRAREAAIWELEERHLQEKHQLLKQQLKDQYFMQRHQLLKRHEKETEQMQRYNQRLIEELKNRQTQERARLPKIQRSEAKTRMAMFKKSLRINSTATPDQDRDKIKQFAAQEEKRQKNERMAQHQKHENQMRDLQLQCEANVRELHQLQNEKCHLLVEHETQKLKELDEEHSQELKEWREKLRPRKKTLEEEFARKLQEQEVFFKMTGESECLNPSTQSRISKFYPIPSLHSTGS

[9] = target: Epidermal growth factor receptor (Homo sapiens, UniProt P00533)
[10] = target: Mitogen-activated protein kinase 9 (Homo sapiens, UniProt P45984)
[11] = target: Tyrosine-protein kinase ABL2 (Homo sapiens, UniProt P42684)
Tyrosine-protein kinase ABL2, sequence (P42684 whole entry): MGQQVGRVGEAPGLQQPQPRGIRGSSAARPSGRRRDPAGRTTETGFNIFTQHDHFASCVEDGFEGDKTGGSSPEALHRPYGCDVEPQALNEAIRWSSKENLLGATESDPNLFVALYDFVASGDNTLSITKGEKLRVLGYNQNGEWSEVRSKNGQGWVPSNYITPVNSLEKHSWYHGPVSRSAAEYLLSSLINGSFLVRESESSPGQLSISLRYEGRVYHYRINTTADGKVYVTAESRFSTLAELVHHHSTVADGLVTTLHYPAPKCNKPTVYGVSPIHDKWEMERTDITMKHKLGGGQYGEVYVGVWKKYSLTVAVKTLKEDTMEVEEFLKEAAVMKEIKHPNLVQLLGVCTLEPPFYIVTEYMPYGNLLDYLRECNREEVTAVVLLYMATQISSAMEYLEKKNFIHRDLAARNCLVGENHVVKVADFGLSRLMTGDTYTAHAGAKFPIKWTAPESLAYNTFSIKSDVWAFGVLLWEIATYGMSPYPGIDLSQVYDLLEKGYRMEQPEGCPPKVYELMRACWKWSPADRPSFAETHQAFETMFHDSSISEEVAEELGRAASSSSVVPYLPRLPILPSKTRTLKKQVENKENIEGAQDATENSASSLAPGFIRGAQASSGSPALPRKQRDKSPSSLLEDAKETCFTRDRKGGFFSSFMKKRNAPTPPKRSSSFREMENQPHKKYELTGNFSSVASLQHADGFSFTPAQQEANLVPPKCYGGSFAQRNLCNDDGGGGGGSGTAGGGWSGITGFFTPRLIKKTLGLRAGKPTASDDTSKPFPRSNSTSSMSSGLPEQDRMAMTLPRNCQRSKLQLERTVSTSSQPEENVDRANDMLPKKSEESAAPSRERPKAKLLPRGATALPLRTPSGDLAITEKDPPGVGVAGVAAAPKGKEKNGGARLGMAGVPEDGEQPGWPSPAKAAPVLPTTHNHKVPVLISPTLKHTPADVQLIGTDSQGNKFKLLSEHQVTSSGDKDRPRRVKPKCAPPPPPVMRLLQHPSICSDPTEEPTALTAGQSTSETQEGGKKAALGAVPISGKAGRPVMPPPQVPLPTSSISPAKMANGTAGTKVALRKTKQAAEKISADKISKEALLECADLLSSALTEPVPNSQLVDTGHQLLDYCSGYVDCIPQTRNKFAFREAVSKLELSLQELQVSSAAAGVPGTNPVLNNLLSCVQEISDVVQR

[12] = target: Tyrosine-protein kinase Lck (Homo sapiens, UniProt P06239)
Tyrosine-protein kinase Lck, sequence (P06239 whole entry): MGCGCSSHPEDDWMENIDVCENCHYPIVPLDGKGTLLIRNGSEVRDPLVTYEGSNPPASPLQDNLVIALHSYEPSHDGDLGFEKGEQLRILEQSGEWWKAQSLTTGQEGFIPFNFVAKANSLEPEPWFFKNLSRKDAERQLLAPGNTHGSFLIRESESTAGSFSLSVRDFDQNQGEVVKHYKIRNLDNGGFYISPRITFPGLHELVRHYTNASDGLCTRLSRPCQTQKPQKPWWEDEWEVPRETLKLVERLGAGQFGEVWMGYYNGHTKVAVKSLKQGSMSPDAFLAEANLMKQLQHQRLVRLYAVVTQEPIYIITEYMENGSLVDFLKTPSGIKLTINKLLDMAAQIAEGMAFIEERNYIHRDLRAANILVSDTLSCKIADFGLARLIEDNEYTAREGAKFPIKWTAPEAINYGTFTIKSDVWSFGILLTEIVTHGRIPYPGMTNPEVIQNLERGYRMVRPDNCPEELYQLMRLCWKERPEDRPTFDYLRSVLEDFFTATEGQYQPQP

[13] = target: Tyrosine-protein kinase ABL1 (Homo sapiens, UniProt P00519, Y253F)
[14] = target: Tyrosine-protein kinase ABL1 (Homo sapiens, UniProt P00519)
[15] = target: Tyrosine-protein kinase ABL1 (Homo sapiens, UniProt P00519, E255K)

Measured: Kd

Mitogen-activated protein kinase 10, sequence (P53779 whole entry, canonical isoform): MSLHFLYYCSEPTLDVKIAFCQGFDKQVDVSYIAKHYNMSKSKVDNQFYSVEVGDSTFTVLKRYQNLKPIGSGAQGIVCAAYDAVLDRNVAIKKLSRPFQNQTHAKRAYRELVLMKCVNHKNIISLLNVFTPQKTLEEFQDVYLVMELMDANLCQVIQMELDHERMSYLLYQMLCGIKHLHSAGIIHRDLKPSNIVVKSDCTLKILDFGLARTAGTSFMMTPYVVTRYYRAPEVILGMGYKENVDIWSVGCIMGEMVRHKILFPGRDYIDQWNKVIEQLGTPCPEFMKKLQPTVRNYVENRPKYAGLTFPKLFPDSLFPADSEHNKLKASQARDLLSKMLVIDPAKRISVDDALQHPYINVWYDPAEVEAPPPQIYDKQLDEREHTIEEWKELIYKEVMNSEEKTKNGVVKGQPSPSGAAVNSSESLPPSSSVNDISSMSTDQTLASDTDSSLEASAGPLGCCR
Serine/threonine-protein kinase Nek6, sequence (Q9HC98 whole entry): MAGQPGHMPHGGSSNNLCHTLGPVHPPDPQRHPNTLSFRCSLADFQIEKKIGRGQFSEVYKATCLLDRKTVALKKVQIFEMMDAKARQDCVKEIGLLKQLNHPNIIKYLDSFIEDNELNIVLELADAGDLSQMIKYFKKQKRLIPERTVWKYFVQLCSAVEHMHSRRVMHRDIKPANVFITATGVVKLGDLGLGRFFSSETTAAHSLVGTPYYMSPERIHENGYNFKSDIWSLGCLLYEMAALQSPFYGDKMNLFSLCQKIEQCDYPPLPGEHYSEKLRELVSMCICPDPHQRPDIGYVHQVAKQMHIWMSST
Casein kinase I isoform epsilon, sequence (P49674 whole entry, canonical isoform): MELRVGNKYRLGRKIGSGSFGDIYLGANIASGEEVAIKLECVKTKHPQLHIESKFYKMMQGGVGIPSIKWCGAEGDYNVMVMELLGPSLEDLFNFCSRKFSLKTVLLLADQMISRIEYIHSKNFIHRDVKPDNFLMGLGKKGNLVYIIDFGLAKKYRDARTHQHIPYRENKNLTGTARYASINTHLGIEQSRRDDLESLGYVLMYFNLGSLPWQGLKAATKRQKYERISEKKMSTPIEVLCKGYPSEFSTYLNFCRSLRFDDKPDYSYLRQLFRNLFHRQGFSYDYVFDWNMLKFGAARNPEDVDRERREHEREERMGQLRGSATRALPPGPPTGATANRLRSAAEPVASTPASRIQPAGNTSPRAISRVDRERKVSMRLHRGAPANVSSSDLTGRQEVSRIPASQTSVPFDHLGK
Dual specificity protein kinase CLK2, sequence (P49760 whole entry): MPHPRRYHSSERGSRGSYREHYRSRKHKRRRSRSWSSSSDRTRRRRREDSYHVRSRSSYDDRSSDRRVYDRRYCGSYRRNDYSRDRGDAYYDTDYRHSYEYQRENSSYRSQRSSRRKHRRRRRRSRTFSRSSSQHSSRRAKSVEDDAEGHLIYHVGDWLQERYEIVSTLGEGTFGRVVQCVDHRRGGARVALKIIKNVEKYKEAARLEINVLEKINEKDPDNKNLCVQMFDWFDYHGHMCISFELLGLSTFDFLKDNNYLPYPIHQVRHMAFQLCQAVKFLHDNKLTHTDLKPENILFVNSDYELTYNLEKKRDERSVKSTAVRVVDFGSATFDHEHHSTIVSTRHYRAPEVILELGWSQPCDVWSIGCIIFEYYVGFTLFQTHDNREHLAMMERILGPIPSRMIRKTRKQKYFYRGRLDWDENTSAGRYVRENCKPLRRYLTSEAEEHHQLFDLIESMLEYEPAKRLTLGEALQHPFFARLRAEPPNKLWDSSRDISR

C#Cc1cccc(Nc2ncnc3cc(OCCOC)c(OCCOC)cc23)c1 [ERLOTINIB]
Not Active: [1] | [2] | [3] | [4] | Ephrin type-B receptor 1 | [5] | [6] | [7] | Aurora kinase C

Cc1ccc(NC(=O)c2ccc(CN3CCN(C)CC3)cc2)cc1Nc1nccc(-c2cccnc2)n1 [IMATINIB]
Not Active: [2] | [3] | Ephrin type-B receptor 1 | [8] | [9] | [7] | Aurora kinase C

O=c1ncn2nc(Sc3ccc(F)cc3F)ccc2c1-c1c(Cl)cccc1Cl [NEFLAMAPIMOD]
not listed: Ephrin type-B receptor 1 | [5] | [11] | [12] | [13] | [14] | [15]
Not Active: all other assays above

CCOc1cc2ncc(C#N)c(Nc3ccc(F)c(Cl)c3)c2cc1NC(=O)/C=C/CN(C)C [PELITINIB]
Not Active: [1] | [3] | [5] | [10] | [6] | Aurora kinase C

Oc1ccc(-c2nc(-c3ccc(F)cc3)c(-c3ccncc3)[nH]2)cc1 [SB-202190]
not listed: [1] | [2] | [5] | [6] | [7] | [9] | [10]
Not Active: all other assays above

C[S+]([O-])c1ccc(-c2nc(-c3ccc(F)cc3)c(-c3ccncc3)[nH]2)cc1 (stereo not drawn) [SB-203580]
Not Active: [3] | [11] | [12] | [4] | [13] | Ephrin type-B receptor 1 | [14] | [15] | Aurora kinase C

CC[C@H](CO)Nc1nc(NCc2ccccc2)c2ncn(C(C)C)c2n1 [SELICICLIB]
not listed: [2] | [4]
Not Active: all other assays above

Oc1c2ccccc2c2c3c(cccc13)N=N2 [SP-600125]
Not Active: [3] | [11] | [12] | [13] | Ephrin type-B receptor 1 | [14] | [5] | [15]

COc1cc2c(N3CCN(C(=O)Nc4ccc(OC(C)C)cc4)CC3)ncnc2cc1OCCCN1CCCCC1 [TANDUTINIB]
not listed: [4] | [8] | [9]
Not Active: all other assays above

From ChEMBL document CHEMBL1144455, “A small molecule-kinase interaction map for clinical kinase inhibitors” (Nat Biotechnol, 2005)
